Laboratory results from US6919309B2, “Methods and compositions for inhibiting angiogenesis” (Northwestern University, priority 1997, dated 2005).

Key:
[1] = system: human dermal microvascular endothelial cells; experiment: Endothelial cell migration assay (modified Boyden chamber), human dermal microvascular endothelial cells; type: cell-based; settings: VEGF 200 pg/ml gradient; FIG. 7
Procedure: (§1) The cells were plated on gelatinized Nucleopore membranes (5 μm pores for bovine capillary cells and 8 μm pores for other cells) in an inverted modified Boyden chamber. After two hours, the chamber was reinverted and test substances added to the top wells of each. Specifically, populations were exposed to either culture medium alone (control), 10 ng/ml bFGF, 2 nM PEDF (full length PEDF), or both 10 ng/ml bFGF (basic fibroblast growth factor) and 10 nM PEDF. The cells were then permitted to migrate for 3-4 hours. Following this, the membranes were fixed and stained, and the number of cells that had migrated were counted.
Additional truncated peptides derived from PEDF were tested for efficacy in the endothelial cell migration assay using human dermal microvascular endothelial cells (Clonetics, Cell Systems) at passage 9 in a modified Boyden Chamber, as described above, and the results are shown in FIG. 7. In FIG. 7A, the cells were exposed to the gradient of VEGF in the presence of purified recombinant PEDF (rPEDF), bacterially produced PEDF (BH) or PEDF peptides containing only amino acid residues 78-121 (44-mer) and 44-77 (34-mer) referring to SEQ ID NO:1. Neutralizing antibodies were added where shown to verify if the anti-angiogenic effect is specific to PEDF peptides and not due to contamination. Both full length PEDF preparations were used at 25 nM, neutralizing polyclonal antiserum against PEDF was used at 1:200 dilution, recombinant human VEGF (R&D Systems) at 200 pg/ml. In FIG. 7B, the cells were exposed to the gradient of VEGF in the presence of increasing concentrations of 34-mer and 44-mer peptides. The antiserum used in this experiment was not affinity purified, whereas the antiserum used in all other experiments presented herein was affinity purified.

[2] = system: bovine adrenal capillary endothelial cells; experiment: Endothelial cell migration assay (modified Boyden chamber), bovine adrenal capillary endothelial cells; type: cell-based; settings: migration towards bFGF; FIGS. 4 and 5
Procedure: as §1
The amount of a given factor necessary to achieve 50% of migration was determined and is reported here as ED50.
In particular, aFGF was employed at a concentration of 50 ng/ml, bFGF was employed at a concentration of 10 ng/ml, IL-8 was employed at a concentration of 40 ng/ml, PDGF was employed at a concentration of 250 pg/ml, and VEGF was employed at a concentration of 100 pg/ml.
In studies aimed at identifying antiangiogenic factors in the eye that might be regulated by the retinoblastoma tumor suppressor gene (Rb), media was fractionated where the media was previously conditioned by a retinoblastoma cell line that had been infected with a retrovirus expressing the wild-type Rb gene, WERI-Rb-27R. (Xu et al., 1991, Cancer Res. 51:4481). […] PEDF was purified from WERI-Rb-27R serum-free conditioned media by sequential steps consisting of dialysis (molecular mass cutoff, 30 kD) against distilled water, 60 to 95% ammonium sulfate precipitation, step elution from lentil lectin Sepharose 4B (Pharmacia) with 0.5 M α-methyl-D-mannopyranoside, and elution from a HiTrap heparin Sepharose column (Pharmacia) with increasing NACl gradient. (Xu, et al., 1991, Cancer Res. 51:4481). […] Migration assays were performed in quadruplicate for each sample with bovine adrenal capillary endothelial cells or human dermal microvascular endothelial cells (Clonetics, San Diego, Calif.) as described. (Polverini, et al., 1991, Methods Enzymol. 198:440). To combine multiple experiments, background migration (Bkgd) was first subtracted toward vehicle (0.1% bovine serum albumin) and them normalized data by setting maximum migration toward inducer alone to 100%. All experiments were repeated two to five times. Statistics were performed on raw data before normalization with the Student's t test. Standard errors were converted to percentages. […] Single-letter abbreviations for the amino acid residues are as follows: A, Ala; D, Asp; E. Glu; F. Phe; G, Gly; I, Ile; L, Leu; M, Met; P, Pro; Q, Gln; R, Arg; S, Ser; T, Thr; V, Val; X, any amino acid; and Y, Tyr.

Molecule | anti-angiogenic activity (block of migration towards VEGF) [1] | potency at inhibiting endothelial cell migration, dose response [2]
44 amino acid peptide: PEDF peptide containing only amino acid residues 78-121 of SEQ ID NO:1 (VLLSPLSVATALSALSLGADERTESIIHRALYYDLISSPDIHGT; listed as Homo Sapiens) | not active as an anti-angiogenic agent | 
MQALVLLLCIGALLGHSSCQNPASPPEEGSPDPDSTGALVEEEDPFFKVPVNKLAAAVSNFGYDLYRVRSSMSPTTNVLLSPLSVATALSALSLGADERTESIIHRALYYDLISSPDIHGTYKELLDTVTAPQKNLKSASRIVFEKKLRIKSSFVAPLEKSYGTRPRVLTGNPRLDLQEINNWVQAQMKGKLARSTKEIPDEISILLLGVAHFKGQWVTKFDSRKTSLEDFYLDEERTVRVPMMSDPKAVLRYGLDSDLSCKIAQLPLTGSMSIIFFLPLKVTQNLTLIEESLTSEFIHDIDRELKTVQAVLTVPKLKLSYEGEVTKSLQEMKLQSLFDSPDFSKITGKPIKLTQVEHRAGFEWNEDGAGTTPSPGLQPAHLTFPLDYHLNQPFIFVLRDTDTGALLFIGKILDPRGP [34 amino acid peptide] | active as an anti-angiogenic agent | 
truncated peptide: trypsin-truncated PEDF missing the approximately 3-5 kDa carboxy-terminal portion (protein, listed as Homo Sapiens) NPASPPEEGSPDPDSTGALVEEEDPFFKVPVNKLAAAVSNFGYDLYRVRSSMSPTTNVLLSPLSVATALSALSLGADERTESIIHRALYYDLISSPDIHGTYKELLDTVTAPQKNLKSASRIVFEKKLRIKSSFVAPLEKSYGTRPRVLTGNPRLDLQEINNWVQAQMKGKLARSTKEIPDEISILLLGVAHFKGQWVTKFDSRKTSLEDFYLDEERTVRVPMMSDPKAVLRYGLDSDLSCKIAQLPLTGSMSIIFFLPLKVTQNLTLIEESLTSEFIHDIDRELKTVQAVLTVPKLKLSYEGEVTKSLQEMKLQSLFDSPDFSKITGKPIKLTQVEHRAGFEWNEDGAGTTPSPGLQPAHL |  | similarly potent at inhibiting endothelial cell migration
